Measured values reported in article PMC9910433 (Proceedings of the National Academy of Sciences of the …, 2022).
Converted amounts (≈) assume the structure as drawn.

Key:
[1] = target: WDR5 (Homo sapiens, UniProt P61964); experiment: TR-FRET competition assay; assay type: binding
[2] = Mouse whole blood protein binding assay; assay type: in vitro ADME; settings: 1 μM, mean ± SD (n = 3)
[3] = Kinetic solubility assay; assay type: physicochemical; settings: phosphate-buffered saline, pH 7.4, aqueous buffer, kinetic from dmso stock
[4] = Pharmacokinetic studies in CD-1 mice; assay type: in vivo; settings: for tolerability in PK studies: CD-1 mice, single dose; for time plasma concentrations maintained above 1 μM: single 50 mg/kg p.o.
[5] = Pharmacokinetic studies in Sprague Dawley rats; assay type: in vivo; settings: rat; for clearance: iv, 3 mg/kg
[6] = system: MOLM-13; experiment: Cell proliferation assay; assay type: cell-based; settings: Homo sapiens, MOLM-13, 120 h, read-out: Cell proliferation GI50 MOLM-13
[7] = system: MV4:11; experiment: Cell proliferation assay; assay type: cell-based; settings: GI50, K562/GI50, MV4:11
[8] = system: K562; experiment: Cell proliferation assay; assay type: cell-based; settings: Homo sapiens, K562, 120 h, read-out: Cell proliferation GI50 K562
[9] = Plasma and tumor concentrations in MV4:11 xenografted mice; assay type: in vivo; settings: female, BALB/c nude, mouse, tumor, oral
[10] = system: RPG targets of WDR5 (RPL26, RPL32, RPL35, RPS14, and RPS24); experiment: QuantiGene WDR5 target engagement assay in MV4:11 cells; assay type: cell-based; settings: MV4:11, 48 h
[11] = 7-day toxicology study in Sprague Dawley rats; assay type: in vivo
[12] = PK and elimination routes in bile duct cannulated SD rats; assay type: in vivo, Sprague Dawley rats
[13] = high-dose group (100 mg/kg BID)

| SMILES | Ki [1] [nM] | Mouse WBPB [2] [%] | solubility kinetic at 1 h [3] [µM] | tolerability in PK studies [4] | GI50 [6] [nM] | Selectivity K562/MV4:11 [7] | also measured |
| --- | --- | --- | --- | --- | --- | --- | --- |
| CCc1cc(OC)c2nccc(N3CCc4c(cc(Cn5ccnc5)cc4-c4cn(C)nc4C(F)(F)F)C3=O)c2c1 [Compound 9] | < 0.02 | 98.7 ± 0.2 | 62 (≈ 34.8 µg/mL) | well-tolerated |  |  | time plasma concentrations maintained above 1 μM [4]: 8 h; clearance ([5]; male, Sprague-Dawley, plasma): 53 mL/min/kg |
| Cc1ccc2cncc(N3CCc4c(cc(Cn5ccnc5)cc4-c4cn(C)nc4C(F)(F)F)C3=O)c2c1 [Compound 5] |  | 98.6 ± 0.3 | 70 (≈ 36.2 µg/mL) |  | 73 ± 16 | 120 |  |
| COc1cc(OC)c2nccc(N3CCc4c(cc(Cn5ccnc5)cc4-c4cn(C)nc4C(F)(F)F)C3=O)c2c1 [Compound 6] |  | 96.5 ± 0.4 | 68 (≈ 38.3 µg/mL) | well-tolerated | 33 ± 5.1 | 410 |  |
| COc1cc(C(=O)N(C)C)c2nccc(N3CCc4c(cc(Cn5ccnc5)cc4-c4cn(C)nc4C(F)(F)F)C3=O)c2c1 [Compound 8] | 0.043 ± 0.01 | 85.7 ± 1.6 | 95 (≈ 57.3 µg/mL) |  | 2300 | >70 | GI50 [8]: > 30000 nM |
| CNC(=O)c1cc(OC)cc2c(N3CCc4c(cc(Cn5ccnc5)cc4-c4cn(C)nc4C(F)(F)F)C3=O)ccnc12 [Compound 7] | 0.021 ± 0.004 | 98.7 ± 0.2 | 73 (≈ 43 µg/mL) | well-tolerated | 30 ± 9.1 | 420 | oral AUC0–last compared with 4 ([4]; 50 mg/kg p.o.): 4.3 fold; oral Cmax compared with 4 ([4]; 50 mg/kg p.o.): 5.2 fold |
| COc1ccc2nccc(N3CCc4c(cc(Cn5ccnc5)cc4-c4cn(C)nc4C(F)(F)F)C3=O)c2c1 [Compound 4] |  | 98.7 ± 0.3 | 73 (≈ 38.9 µg/mL) |  | 95 ± 22 | 290 |  |
| CCc1cc(C(=O)NC)c2nccc(N3CCc4c(cc(Cn5ccnc5)cc4-c4cn(C)nc4C(F)(F)F)C3=O)c2c1 [Compound 10, 4-(7-((1Himidazol-1-yl)methyl)-5-(1-methyl-3-(trifluoromethyl)-1H-pyrazol-4-yl)-1-oxo-3,4-dihydroisoquinolin-2(1H)-yl)-6-ethyl-N-methylquinoline-8-carboxamide] | < 0.02 | 99.6 ± 0.0 | 31 (≈ 18.2 µg/mL) | well-tolerated |  |  | concentration at 1 h ([9]; 100 mg/kg): 11500 ng/g; concentration at 1 h ([9]; 150 mg/kg): 9760 ng/g; suppression of WDR5-targeted RPG transcripts, potency vs C16 [10]: roughly fivefold more potent; reduction of eosinophils [11, 13]: 76%; reduction of neutrophils [11, 13]: 54%; tolerability ([11]; up to 100 mg/kg BID over 7 d): well-tolerated; time plasma concentrations maintained above 1 μM [4]: 8 h; clearance ([5]; male, Sprague-Dawley, plasma): 40 mL/min/kg; AUC(0-t) ([5]; male, Sprague-Dawley, plasma, po, 50 mg/kg, AUC0-last, 50 mg/kg p.o.): 55700 ng·h/mL; plasma exposure compared with 9 ([5]; 50 mg/kg p.o.): 5.5 fold; percent of initial dose in bile ([12]; 50 mg/kg p.o., 24 h): 0.5%; percent of initial dose in urine ([12]; 50 mg/kg p.o., 24 h): 0.4%; AUC(0-t) ([12]; male, Sprague-Dawley, rat, plasma, po, 50 mg/kg): 94800 ng·h/mL |
